From the supplement of paper PMC10307832

How the values were obtained:
Experiment in all cases: relative viability (nuclei count vs DMSO), 5 days (fraction); higher = more cells survive
Vemurafenib + Trametinib = compound: CCCS(=O)(=O)Nc1ccc(F)c(C(=O)c2c[nH]c3ncc(-c4ccc(Cl)cc4)cc23)c1F [Vemurafenib] + CC(=O)Nc1cccc(-n2c(=O)n(C3CC3)c(=O)c3c(Nc4ccc(I)cc4F)n(C)c(=O)c(C)c32)c1 [Trametinib] (partner 0.02 µM)
Procedure, shortened: (§1)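 The day after seeding in 1536-well plates, lung cancer cell lines were treated by pin tool with a single drug, or with a fixed anchor-drug dose together with five library-drug doses (not always all listed) in √10 steps. After 5 days, a combined fix-and-stain solution (final 0.05% Triton X-100, 1% formaldehyde, 1 ug/ml Hoechst) was added. Nuclei counted on 4× images gave relative viability as treated counts over vehicle counts, reported as the median of duplicate plates.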

OSI-027 + Phenformin = compound: COc1cccc2cc(-c3nc([C@H]4CC[C@H](C(=O)O)CC4)n4ncnc(N)c34)[nH]c12 [OSI-027] + N=C(N)NC(=N)NCCc1ccccc1 [Phenformin] (partner 250 µM)
Procedure, shortened: as §1

Alpelisib + Luminespib = compound: Cc1nc(NC(=O)N2CCC[C@H]2C(N)=O)sc1-c1ccnc(C(C)(C)C(F)(F)F)c1 [Alpelisib] + CCNC(=O)c1noc(-c2cc(C(C)C)c(O)cc2O)c1-c1ccc(CN2CCOCC2)cc1 [Luminespib] (partner 0.01 µM)
Procedure, shortened: as §1

Alpelisib + Pemetrexed = compound: Cc1nc(NC(=O)N2CCC[C@H]2C(N)=O)sc1-c1ccnc(C(C)(C)C(F)(F)F)c1 [Alpelisib] + Nc1nc2[nH]cc(CCc3ccc(C(=O)N[C@@H](CCC(=O)O)C(=O)O)cc3)c2c(=O)[nH]1 [Pemetrexed] (partner 0.2 µM)
Procedure, shortened: as §1

Cell Line	relative viability (Vemurafenib + Trametinib; first compound 0.03162 µM)	relative viability (Vemurafenib + Trametinib; first compound 0.1 µM)	relative viability (Vemurafenib + Trametinib; first compound 1 µM)	relative viability (OSI-027 + Phenformin; first compound 0.01 µM)	relative viability (OSI-027 + Phenformin; first compound 0.03162 µM)	relative viability (OSI-027 + Phenformin; first compound 0.1 µM)	relative viability (OSI-027 + Phenformin; first compound 0.3162 µM)	relative viability (OSI-027 + Phenformin; first compound 1 µM)	relative viability (Alpelisib + Luminespib; first compound 0.04 µM)	relative viability (Alpelisib + Luminespib; first compound 0.1265 µM)	relative viability (Alpelisib + Luminespib; first compound 0.4 µM)	relative viability (Alpelisib + Luminespib; first compound 1.265 µM)	relative viability (Alpelisib + Luminespib; first compound 4 µM)	relative viability (Alpelisib + Pemetrexed; first compound 0.04 µM)	relative viability (Alpelisib + Pemetrexed; first compound 0.1265 µM)	relative viability (Alpelisib + Pemetrexed; first compound 0.4 µM)	relative viability (Alpelisib + Pemetrexed; first compound 1.265 µM)	relative viability (Alpelisib + Pemetrexed; first compound 4 µM)	relative viability (Vemurafenib + Trametinib; first compound 0.3162 µM)
NCI-H1792	0.495	0.482	0.548	0.126	0.168	0.228	0.204	0.173	0.338	0.5	0.576	0.326	0.323	0.897	0.479	0.992	0.688	0.462	
NCI-H1793	0.397	0.387	0.591	0.365	0.367	0.306	0.297	0.184	0.194	0.177	0.154	0.165	0.179	0.879	0.855	0.977	0.614	0.596	0.467
NCI-H1915	0.308	0.26	0.358	0.38	0.38	0.359	0.381	0.32	0.738	0.725	0.829	0.643	0.766	0.498	0.527	0.525	0.49	0.428	0.328
NCI-H1944	0.453		0.423	0.2	0.222	0.19	0.172	0.137	0.644	0.739	0.706	0.456	0.275	0.596	0.695	0.677	0.5	0.502	0.41
NCI-H1975	0.328	0.327	0.281	0.435	0.412	0.379	0.363	0.298	0.227	0.204	0.199	0.184	0.155	0.298	0.293	0.294	0.285	0.279	0.259
NCI-H1993	0.5		0.609	0.529	0.472	0.492	0.546	0.547	0.751	0.744	0.758	0.476	0.503	0.606	0.544	0.571	0.545	0.432	0.555
NCI-H2009	0.269	0.272	0.372	0.477	0.48	0.487	0.425	0.277	0.995	0.999	1.14	1.06	1.08	0.987	1.03	1.08	1.01	0.968	0.21
NCI-H2023	0.592	0.489	0.699	0.452	0.367	0.397	0.301	0.213	0.644	0.606	0.679	0.505	0.4	0.214	0.221	0.219	0.181	0.185	0.597
NCI-H2085	0.529	0.477	0.621	0.727	0.701	0.704	0.623	0.503	0.504	0.419	0.46	0.415	0.364	0.848	0.847	0.86	0.865	0.803	0.663
